# Source: patent US20230202982A1, “5-CHLORO-4-HYDROXY-1-METHYL-2-OXO-N-PHENYL-QUINOLINE-3-CARBOXAMIDE POTASSIUM SALT FOR TREATING INFLAMMATORY BOWEL DISEASES” (Aqilion AB, priority 2020, published 2023)
# Like-named read-outs stand apart in the source and are kept apart here.
# Experiments:
# [1] = Solubility in PBS (pH 7.4) and simulated colonic fluid, saturated solutions by HPLC-UV; type: physicochemical; settings: thermodynamic from solid, saturated solution, ambient temperature
# Experimental: The solubility and stability at room temperature of Example compound 1 and the free acid compound 5-chloro-4-hydroxy-1-methyl-2-oxo-N-phenyl-quinoline-3-carboxamide (described in Example 1a) above) was determined in PBS (pH 7.4) and in simulated colonic fluid (SCF) at ambient temperature. The SCF was the product FaSSCof obtained from Biorelevant.com prepared according to the manufacturer’s instructions. FaSSCof contains 0.15 mM sodium cholate, 0.3 mM Phospholipids, 0.1 mM Oleate, 120 mM sodium hydroxide, 45 mM TRIS and 76 mM maleate.
# Saturated solutions were prepared in these solvents and the concentrations/impurity profile was determined by HPLC-UV using a calibration curve in the range of 1 to 150 µg/ml at 300 nm or 320 nm. Visual evaluation was also performed after every step over the testing period.
# [2] = Thermogravimetric analysis (TGA) and differential scanning calorimetry (DSC); type: physicochemical; settings: heating 20° C./min, nitrogen
# Experimental: For the TGA analysis, approximately 5-10 mg of sample of Example Compound 1 was accurately weighed into a pierced Tzero aluminium pan and sealed with a pinhole lid using a crimper. The sample was then loaded into the chamber of a TGA thermal analyser at ambient temperature. A TA Instruments TGA5500 device was used. The sample was then heated at a rate of 20° C./min from 20° C. to 400° C. The purge gas used was nitrogen at a flow rate of 50 cm^3/min.
# For the DSC analysis, approximately 2 mg of sample was accurately weighed into a pierced Tzero aluminium pan and sealed using a universal crimper. The sample was then loaded into the chamber of a DSC analyser at ambient temperature. A TA Instruments DSC2500 device was used. The sample was then heated at a rate of 20° C./min from 30° C. to 400° C. The purge gas used was nitrogen at a flow rate of 50 cm^3/min
# [3] = Slurry in water for 48 hours, re-examined by XRPD (disproportionation); type: physicochemical; settings: slurry in water 20 mg / 400 uL, ambient temperature, potassium salt
# Experimental: When a sample of Example compound 1 was stored in a slurry in water at 20 mg / 400uL for 48 hours at ambient temperature, recovered, dried by evaporation and re-examined by XRPD, there was no change in the X-ray diffractogram.
# [4] = Hygroscopicity by Dynamic Vapour Sorption (DVS); type: physicochemical; settings: 25° C.; for Hygroscopicity: DVS, 0 to 90% RH, potassium salt
# Experimental: Dynamic Vapour Sorption (DVS) analysis was carried out on a sample of Example compound 1.
# Approximately 20 mg of sample was placed into a wire-mesh vapour sorption balance pan and loaded into an ‘IgaSorp’ vapour sorption balance (Hiden Analytical Instruments). The sample was then dried by maintaining a 0% humidity environment until no further weight change was recorded.
# The sample was then subjected to a step profile from 0 to 90% RH at 10% RH increments. The desorption isotherm was from 90% RH o 0% RH in 10% RH steps. The weight change during the sorption/desorption cycles were then monitored, allowing for the hygroscopic nature of the sample to be determined. Analysis was performed using the following parameters: • Analysis Mode F1 • Wait Time 99% • Sample Temperature 25° C. • Min Time Out 30 Mins • MaxTime Out 180 Mins • Gas Flow Rate 250 ml/min
# [5] = test system: CD4+ adoptive transfer induced inflammatory bowel disease; test: CD4+ adoptive transfer induced inflammatory bowel disease in mice; type: in vivo
# Experimental: The efficacy of the 5-chloro-4-hydroxy-1-methyl-2-oxo-N-phenyl-quinoline-3-carboxamide potassium salt in inhibiting inflammation/edema associated with inflammatory bowel disease was evaluated in a CD4+ adoptive transfer induced inflammatory bowel disease in mice.
# On study day -1, SCID mice were weighed and evenly distributed into treatment groups based on body weight.
# On study day 0, Balb/C mice were terminated, and spleens obtained for CD4^+CD45RB^high cell isolation (Using SCID IBD Cell Separation Protocol). After cells were sorted and obtained, each animal in the treatment groups received an IP injection of CD4^+CD45RB^high cells at a minimum 4x10^5 cells (200 µl/mouse injections). A naive group of mice was followed through the experiment without receiving the injection of cells. The naive group comprised 5 animals.
# On study day 21, treatment with 5-chloro-4-hydroxy-1-methyl-2-oxo-N-phenylquinoline-3-carboxamide potassium salt (1 mg/kg, daily day 21 to 49) was initiated. The compound was formulated as a 0.1 mg/mL suspension with sodium carboxymethyl cellulose (1%, w/v). Mice received either the 5-chloro-4-hydroxy-1-methyl-2-oxo-N-phenyl-quinoline-3-carboxamide potassium salt (Example compound 1) or vehicle. Each of those groups comprised 10 animals.
# On study day 49, animals were anesthetized with Isoflurane and bled to exsanguination followed by cervical dislocation. The entire colon was removed, measured, and weighed. The colon was analysed for its level of interferon-γ and IL-22. The inflammation in the colons was also scored by visual and histopathological assessments.
# [6] = In vivo pharmacokinetic study in rats after oral dosing; design: species or system Sprague Dawley rats; settings: 1 mg/kg oral; for Level in plasma after oral dosing: 15 min to 24 h post dose
# Experimental: An in vivo pharmacokinetic study in rats was performed to determine if 5-chloro-4-hydroxy-1-methyl-2-oxo-N-phenyl-quinoline-3-carboxamide potassium salt (example compound 1) can be absorbed and detected systemically after oral dosing.
# 4 male Sprague Dawley rats, approximately 225 g - 250 g at dosing were dosed with 1 mg/kg of Example compound 2 formulated as a 0.1 mg/mL suspension with sodium carboxymethyl cellulose (1%, w/v). Blood samples were taken at 15 min, 30 min, 1 h, 2 h, 4 h, 6 h, 8 hand 24 h post dose
# At each blood sampling approximately 250 µL blood was sampled in K3EDTA vials and approximately 100 µL plasma was also prepared.
# The plasma samples were prepared by mixing 50 µL plasma with 250 µL of internal standard solution (20 ng/ml of phenacetin in ACN with 1% formic acid), mixed and centrifuged (20 min, 4000 rpm).
# Plasma samples were transferred to Waters Ostro 96-well plate and drawn through the plate by applying 6-8 psi positive pressure for 10 min. 100 µL of supernatant was further diluted with 50 µL UP water and sample was submitted to analysis.
# The standard and QC samples were prepared into blank rat colon homogenate and blank rat plasma. Standards were spiked into concentrations 0.1 - 10000 ng/ml of the analytes, QC samples into 3, 30, 300 and 3000 ng/ml, and were otherwise treated as samples.
# [7] = listed as 5-chloro-4-hydroxy-1-methyl-2-oxo-N-phenylquinoline-3-carboxamide potassium salt
smiles,measurement,setting,value
"Cn1c(=O)c(C(=O)Nc2ccccc2)c([O-])c2c(Cl)cccc21.[K+] [Example compound 1, 5-chloro-4-hydroxy-1-methyl-2-oxo-N-phenyl-quinoline-3-carboxamide potassium salt]",solubility,"[1]; aqueous buffer, PBS (pH 7.4), read-out: Solubility in PBS (pH7.4)",0.91 µg/mL
same,solubility,"[1]; simulated colonic fluid (FaSSCof), fassgf or other biorelevant, SCF (FaSSCof), read-out: Solubility in simulated colonic fluid (SCF)",7.99 µg/mL
same,Degradation temperature,"[2]; listed as 5-chloro-4-hydroxy-1-methyl-2-oxo-N-phenyl-quinoline-3-carboxamide potassium sal, potassium salt",347 °C
same,Degradation temperature,"[2]; listed as Example Compound 1, potassium salt",347 °C ±2 °C
same,Degradation temperature,[2]; potassium salt,347 °C
same,Stability in water slurry: change in X-ray diffractogram,[3]; [7],stable when in a slurry
same,Stability in water slurry: change in X-ray diffractogram,[3],no change
same,Hygroscopicity,[4]; [7],not hygroscopic
same,Hygroscopicity,[4],non-hygroscopic
same,Reversible weight gain (DVS),[4]; analysed to 80% RH,less than 0.2%
same,Body weight change,"[5]; 1 mg/kg daily day 21 to 49, SCID mice, vs vehicle, FIG. 4",less weight loss
same,Colon level of inflammatory markers (interferon-γ and IL-22),"[5]; 1 mg/kg daily day 21 to 49, day 49, vs vehicle, FIG. 5",lower levels of inflammatory markers
same,Colon inflammation scores (visual and histopathological),"[5]; 1 mg/kg daily day 21 to 49, day 49, vs vehicle, FIG. 6",fewer signs of inflammation
same,Inhibition of inflammation/edema associated with inflammatory bowel disease,"[5]; CD4+ adoptive transfer model in mice, summary statement",effective in inhibiting inflammation/edema
same,Level in plasma after oral dosing,"[6]; FIG. 7, listed as 5-chloro-4-hydroxy-1-methyl-2-oxo-N-phenyl-quinoline-3-carboxamide potassium sal, potassium salt",absorbed through the intestine into the plasma
same,Level in plasma after oral dosing,"[6]; FIG. 7, potassium salt",detected in the plasma
same,Clearance from plasma,[6]; FIG. 7,rapidly cleared
